The source of these data is ChEMBL document CHEMBL5512599, “Synthetic non-toxic anti-biofilm agents as a strategy in combating bacterial resistance” (Eur J Med Chem, 2023).

In brackets after ≈: the same amount, converted by molar mass.

The subject of assay [1] is Klebsiella pneumoniae. Nature of the assay: Antibiofilm activity against Klebsiella pneumoniae ATCC 13882 assessed as inhibition of biofilm formation incubated for 24 hrs by crystal violet staining based broth microdilution method. It counts as functional, organism-based. The note with it: ATCC 13882, 24 h. For orientation: In broth dilution the organism is exposed to a series of concentrations in liquid medium.

Assay [2] concerns Klebsiella pneumoniae. Nature of the assay: Antibacterial activity against Klebsiella pneumoniae ATCC 13882 assessed as fold change in colistin MIC incubated for 16 to 18 hrs by broth microdilution method. Format: functional. The note with it: time 16-18 hrs.
The test system of assay [3] is Staphylococcus aureus. Nature of the assay: Antibacterial activity against methicillin-sensitive Staphylococcus aureus ATCC 29213 assessed as reduction in bacterial growth incubated for 18 hrs by mueller hinton broth dilution method. Format: functional, organism-based. The note with it: ATCC 29213, 18 h.
The test system of assay [4] is Staphylococcus aureus. Nature of the assay: Antibiofilm activity against Methicillin-sensitive Staphylococcus aureus ATCC 29213 assessed as reduction in biofilm formation at 200 uM incubated for 24 hrs by crystal violet staining based analysis relative to control. Set-up: scale not given: the % may be the effect or the level left. Format: functional.
Assay [5] relates to Staphylococcus epidermidis. Nature of the assay: Antibiofilm activity against Staphylococcus epidermidis ATCC 12228 assessed as inhibition of biofilm formation measured after 24 hrs by confocal laser scanning microscopy analysis. It counts as functional, organism-based. The note with it: ATCC 12228, 24 h.
The test system of assay [6] is Staphylococcus epidermidis. Nature of the assay: Antibiofilm activity against Staphylococcus epidermidis clinical isolate 532/12 assessed as inhibition of biofilm formation measured after 24 hrs by confocal laser scanning microscopy analysis. Format: functional, organism-based.
Assay [7] has as its system Staphylococcus epidermidis. Nature of the assay: Antibacterial activity against Staphylococcus epidermidis clinical isolate 517/12 assessed as reduction in bacterial growth measured after 24 hrs by CLSI based broth micro-dilution method. Format: functional.
The subject of assay [8] is Staphylococcus epidermidis. Nature of the assay: Antibiofilm activity against Staphylococcus epidermidis clinical isolate 519/12 assessed as inhibition of biofilm formation measured after 24 hrs by confocal laser scanning microscopy analysis. It counts as functional, organism-based.
The test system of assay [9] is Staphylococcus epidermidis. Nature of the assay: Antimicrobial activity against Staphylococcus epidermidis ATCC 12228 assessed as reduction in microbial growth after 24 hrs by CLSI based broth microdilution method. It counts as functional.
Assay [10] deals with Staphylococcus epidermidis. Nature of the assay: Antibiofilm activity against Staphylococcus epidermidis clinical isolate 528/12 assessed as inhibition of biofilm formation measured after 24 hrs by confocal laser scanning microscopy analysis. Format: functional, organism-based.
The subject of assay [11] is Staphylococcus epidermidis. Nature of the assay: Antibacterial activity against Staphylococcus epidermidis clinical isolate 532/12 assessed as reduction in bacterial growth measured after 24 hrs by CLSI based broth micro-dilution method. It counts as functional.
Assay [12] concerns Staphylococcus epidermidis. Nature of the assay: Antibiofilm activity against Staphylococcus epidermidis clinical isolate 517/12 assessed as inhibition of biofilm formation measured after 24 hrs by confocal laser scanning microscopy analysis. Format: functional, organism-based.
The test system of assay [13] is Staphylococcus epidermidis. Nature of the assay: Antimicrobial activity against Staphylococcus epidermidis ATCC 35984 assessed as reduction in microbial growth after 24 hrs by CLSI based broth microdilution method. It counts as functional.
For assay [14], the system named is Staphylococcus epidermidis. Nature of the assay: Antibiofilm activity against Staphylococcus epidermidis clinical isolate 526/12 assessed as inhibition of biofilm formation measured after 24 hrs by confocal laser scanning microscopy analysis. It counts as functional, organism-based.
Assay [15] has as its system Staphylococcus epidermidis. Nature of the assay: Antibacterial activity against Staphylococcus epidermidis clinical isolate 528/12 assessed as reduction in bacterial growth measured after 24 hrs by CLSI based broth micro-dilution method. Format: functional.
Assay [16] deals with Staphylococcus epidermidis. Nature of the assay: Antibiofilm activity against Staphylococcus epidermidis clinical isolate 523/12 assessed as inhibition of biofilm formation measured after 24 hrs by confocal laser scanning microscopy analysis. Format: functional, organism-based.
Assay [17] concerns Staphylococcus epidermidis. Nature of the assay: Antibacterial activity against Staphylococcus epidermidis clinical isolate 531/12 assessed as reduction in bacterial growth measured after 24 hrs by CLSI based broth micro-dilution method. It counts as functional.
Assay [18] has as its system Staphylococcus epidermidis. Nature of the assay: Antibiofilm activity against Staphylococcus epidermidis clinical isolate 531/12 assessed as inhibition of biofilm formation measured after 24 hrs by confocal laser scanning microscopy analysis. It counts as functional, organism-based.
The subject of assay [19] is Staphylococcus epidermidis. Nature of the assay: Antibacterial activity against Staphylococcus epidermidis clinical isolate 533/12 assessed as reduction in bacterial growth measured after 24 hrs by CLSI based broth micro-dilution method. It counts as functional.
The subject of assay [20] is Staphylococcus epidermidis. Nature of the assay: Antibiofilm activity against Staphylococcus epidermidis clinical isolate 533/12 assessed as inhibition of biofilm formation measured after 24 hrs by confocal laser scanning microscopy analysis. It counts as functional, organism-based.
The subject of assay [21] is Staphylococcus aureus. Nature of the assay: Antibacterial activity against […] Staphylococcus aureus ATCC 29213 assessed as reduction in bacterial growth incubated for 18 hrs by mueller hinton broth dilution method. Format: functional, organism-based. The note with it: ATCC 29213, 18 h.
Assay [22] deals with Staphylococcus aureus. Nature of the assay: Antibiofilm activity against Staphylococcus aureus ATCC 25923 after 24 hrs by crystal violet staining based assay. It counts as functional.
Assay [23] deals with Staphylococcus aureus. Nature of the assay: Antibacterial activity against Staphylococcus aureus ATCC 25923 assessed as reduction in bacterial growth incubated for 18 to 24 hrs by broth microdilution method. Format: functional. The note with it: time 18-24 hrs.
In assay [24] the test system is Staphylococcus aureus. Nature of the assay: Antibacterial activity against Staphylococcus aureus ATCC 6538 assessed as reduction in bacterial growth incubated for 18 to 24 hrs by broth microdilution method. Format: functional. The note with it: time 18-24 hrs.
Assay [25] deals with Staphylococcus aureus. Nature of the assay: Antibacterial activity against Staphylococcus aureus ATCC 29213 assessed as reduction in bacterial growth incubated for 18 to 24 hrs by broth microdilution method. The note with it: time 18-24 hrs. Format: functional.
In assay [26] the test system is Staphylococcus epidermidis. Nature of the assay: Antibacterial activity against Staphylococcus epidermidis RP62A assessed as reduction in bacterial growth incubated for 18 to 20 hrs by broth microdilution assay. It counts as functional. The note with it: time 18-20 hrs.
Assay [27] is described as follows: Inhibition of Staphylococcus aureus sortase A by FRET assay.

As a reminder, the IC50 is the concentration at which inhibition is half-maximal. As to `Nc1nccc(-c2cccc(NC(=O)c3cc(Br)cc(Br)c3)c2)n1`, the IC50 in assay [1] was 17.4 µM. Besides, the “fold change (FC)” value in assay [2] is 32.
For the molecule `CCCCCCCCCC(=O)NCCCc1cnc(N)nc1`, the IC50 in [3] was 67 µM. For the same molecule, the Activity in assay [4] was 80%.
The MIC is the lowest concentration found to suppress growth. As to `Fc1ccc(NC(=S)Nc2nccs2)cc1Cl`, the 50% inhibitory concentration (IC50) in assay [5] is 0.35 µg/mL (≈ 1.22 µM); in assay [6], 2.21 µg/mL (≈ 7.68 µM); in assay [8], 2.5 µg/mL (≈ 8.69 µM); in assay [10] it was 1.11 µg/mL (≈ 3.86 µM); in assay [12], 0.66 µg/mL (≈ 2.29 µM); in assay [14], 4.95 µg/mL (≈ 17.2 µM). Moreover, the values for the IC50 in assay [16], in assay [18] and in assay [20] were 3.14 µg/mL (≈ 10.9 µM), 1.13 µg/mL (≈ 3.93 µM) and 2.88 µg/mL (≈ 10 µM), respectively. The MIC in [7] came to 8 µg/mL (≈ 27.8 µM); in assay [9], 4 µg/mL; in assay [11] it was 4 µg/mL (≈ 13.9 µM); in assay [13], 4 µg/mL; in assay [15], 8 µg/mL (≈ 27.8 µM); in assay [17] it was 4 µg/mL (≈ 13.9 µM). In [19], the MIC was 4 µg/mL (≈ 13.9 µM).
Consider `Nc1ncc(C#CC2CCCC2)cn1`, for which, in assay [4], the Activity stood at 85%. The IC50 in assay [21] came out at 72 µM.
`CC(=O)/C(=N\Nc1ccccc1)C(=O)O` yielded an Activity in [22] of 60%. Moreover, the MIC in [23], in assay [24], in [25] and in assay [26] was more than 270 µM in each case. The molecule also gave an IC50 in assay [27] of 80 µM.
